The record followed here is publication PMC6384738, “Structure-Function Studies of Polymyxin B Lipononapeptides” (Molecules, 2019).

One data set deals with A. baumannii ATCC 19606. As to the kind of experiment: microbe, parasite or virus in culture. How it is done:
(§1) All compounds synthesised in this study were assessed for their minimum inhibitory concentrations (MIC, mg/L) by broth microdilution assay against five antibiotic-sensitive and resistant ATCC reference strains covering the Gram-negative ESKAPE pathogens (Escherichia coli, Klebsiella pneumoniae, A. baumannii, and P. aeruginosa) (Table 1, Table 2 and Table 3). Staphylococcus aureus was also included as a representative Gram-positive bacterial strain. […] Polymyxin B 1, colistin 2, vancomycin and gentamicin were used as positive inhibitor comparator compounds. Compounds were counter-screened against human proximal tubular epithelial cells (HK-2), using LDH release as a general indicator of cellular toxicity.

For the next data set, the system named is E. coli ATCC 25922. As to the kind of experiment: microbe, parasite or virus in culture. The protocol:
as §1

The test system of data set [1] is K. pneumoniae ATCC 700603. The experiment in a line: microbe, parasite or virus in culture. How it is done: as §1
A further data set deals with S. aureus ATCC 25923. As to the kind of experiment: microbe, parasite or virus in culture. How it is done:
as §1

Another data set relates to K. pneumoniae BAA 2146. As to the kind of experiment: microbe, parasite or virus in culture. How it is done:
as §1

The next data set has as its system P. aeruginosa ATTC 27853. As to the kind of experiment: microbe, parasite or virus in culture. How it is done: as §1
In the next data set the test system is K. pneumoniae ATCC 13833. As to the kind of experiment: microbe, parasite or virus in culture. The protocol: as §1
The nature of a further data set: in vitro. The settings on record: human. The protocol:
as §1
Cytotoxicity to human kidney proximal tubular epithelial cell line, HK-2 (ATCC CRL-2190, sourced from ATCC; Manassas, VA, USA) was determined using the LDH assay as previously described. In brief, HK-2 cells were seeded as 2000 cells/well in black-walled clear bottom 384-well tissue culture treated plates (Corning, catalogue No. 3712) in DMEM/F12 medium (Gibco® 10565-042) containing 10% of Fetal Bovine Serum (FBS, Gibco® 10099-141) and incubated for 24 h at 37 °C, 5% CO2. Compounds were then added into each well with a concentration series from 300 µM to 2.3 µM in 2-fold dilutions. Colistin and polymyxin B were used as controls and tested at a final concentration range of 1 mM to 7.8 µM. The cells were incubated with the compounds for 24 h at 37 °C, 5% CO2. After the incubation, 5 µL of culture medium was added to 45 µL of LDH assay buffer (Biovision, K313-500) and incubated for 30 min at room temperature. The absorbance (ABS) was then read at 450 nm using a Polar Star Omega plate reader. The data was analysed by Prism 6 software (GraphPad Software, La Jolla, CA, USA). Results were calculated using the following equation: cytotoxicity %= (ABSsamples − ABSuntreated/ABS1%Triton X-100 − ABSuntreated) × 100.

Values after ≈ are worked out from the molar mass of the structure shown. *1 amine or outer side, *2 acyl side, *3 side chain or, on linkers, in order; H or OH if unused. Where a SMILES comes first, the peptide text is derived from it. Bridges are numbered along the chain shown (N, C = ends). [ ]: non-standard residue; d: D form. The star is where a group is joined. Decanoyl(3R-OH) = CCCCCCC[C@@H](O)CC(=O)*; X2 = CCCCCOc1cccc(C(=O)*)c1; NH(2-ClPh) = Clc1ccccc1N*; Octanoyl = CCCCCCCC(=O)*; Dab = NCC[C@H](N)C(=O)O; CO = O=C([*:1])[*:2]

As to `CCCCCCCC(=O)N[C@H](C(=O)N[C@@H](CCN)C(=O)N[C@H]1CCCCNC(=O)[C@H]([C@@H](C)O)NC(=O)[C@H](CCN)NC(=O)[C@H](CCN)NC(=O)[C@H](CC(C)C)NC(=O)[C@@H](Cc2ccccc2)NC(=O)[C@H](CCN)NC1=O)[C@@H](C)O` [Compound 18] (Octanoyl-T[Dab]K[Dab][dF]L[Dab][Dab]T; lactam 3-C), the “MIC A. baumannii ATCC 19606” value against A. baumannii ATCC 19606 (ATCC 19606, 18 h) was greater than 32 µg/mL. In addition, the “MIC E. coli ATCC 25922” value in the data set on E. coli ATCC 25922 (ATCC 25922, 18 h) came to 16 µg/mL (≈ 14.3 µM). The “MIC K. pneumoniae ATCC 700603” value in data set [1] (ATCC 700603, 18 h) was greater than 32 µg/mL. Besides, the “MIC S. aureus ATCC 25923” value with S. aureus ATCC 25923 (ATCC 25923, 18 h) was greater than 32 µg/mL. Moreover, in the data set with K. pneumoniae BAA 2146 (BAA 2146, 18 h), the “MIC K. pneumoniae BAA 2146” value was greater than 32 µg/mL. Moreover, the “MIC P. aeruginosa ATTC 27853” value with P. aeruginosa ATTC 27853 (ATTC 27853, 18 h) was determined as 16 µg/mL (≈ 14.3 µM). Also, the “MIC K. pneumoniae ATCC 13833” value against K. pneumoniae ATCC 13833 (ATCC 13833, 18 h) was greater than 32 µg/mL. The molecule also returned a CC50 at 24 h in the data set “in vitro” of 88 µM.

Turning to `CCCCCCCC(=O)N[C@H](C(=O)N[C@@H](CC(N)=O)C(=O)N[C@H]1CCNC(=O)[C@H]([C@@H](C)O)NC(=O)[C@H](CCN)NC(=O)[C@H](CCN)NC(=O)[C@H](CC(C)C)NC(=O)[C@@H](Cc2ccccc2)NC(=O)[C@H](CCN)NC1=O)[C@@H](C)O` [Compound 38] (Octanoyl-TN[Dab][Dab][dF]L[Dab][Dab]T; lactam 3-C), in the data set with A. baumannii ATCC 19606 (ATCC 19606, 18 h), the “MIC A. baumannii ATCC 19606” value was greater than 32 µg/mL. Further, in the data set with E. coli ATCC 25922 (ATCC 25922, 18 h), the “MIC E. coli ATCC 25922” value came out at 32 µg/mL (≈ 29 µM). Moreover, in data set [1] (ATCC 700603, 18 h), the “MIC K. pneumoniae ATCC 700603” value was greater than 32 µg/mL. Besides, the “MIC S. aureus ATCC 25923” value with S. aureus ATCC 25923 (ATCC 25923, 18 h) was greater than 32 µg/mL. In addition, in the data set with K. pneumoniae BAA 2146 (BAA 2146, 18 h), the “MIC K. pneumoniae BAA 2146” value was greater than 32 µg/mL. For the same molecule, in the data set on P. aeruginosa ATTC 27853 (ATTC 27853, 18 h), the “MIC P. aeruginosa ATTC 27853” value was greater than 32 µg/mL. Further, the “MIC K. pneumoniae ATCC 13833” value with K. pneumoniae ATCC 13833 (ATCC 13833, 18 h) is greater than 32 µg/mL. In the data set “in vitro”, this molecule gave a CC50 at 24 h of 284 µM.

Take `CCCCCOc1cccc(C(=O)N[C@H](C(=O)N[C@@H](CCN)C(=O)N[C@H]2CCNC(=O)[C@H]([C@@H](C)O)NC(=O)[C@H](CCN)NC(=O)[C@H](CCN)NC(=O)[C@H](CC(C)C)NC(=O)[C@@H](Cc3ccccc3)NC(=O)[C@H](CCN)NC2=O)[C@@H](C)O)c1` [Compound 11] (X2-T[Dab][Dab][Dab][dF]L[Dab][Dab]T; lactam 3-C): the “MIC A. baumannii ATCC 19606” value with A. baumannii ATCC 19606 (ATCC 19606, 18 h) is greater than 32 µg/mL. The “MIC E. coli ATCC 25922” value in the data set on E. coli ATCC 25922 (ATCC 25922, 18 h) was 8 µg/mL (≈ 6.94 µM). Further, the “MIC K. pneumoniae ATCC 700603” value in data set [1] (ATCC 700603, 18 h) was 32 µg/mL (≈ 27.7 µM). In addition, the “MIC S. aureus ATCC 25923” value against S. aureus ATCC 25923 (ATCC 25923, 18 h) is greater than 32 µg/mL. The “MIC K. pneumoniae BAA 2146” value in the data set with K. pneumoniae BAA 2146 (BAA 2146, 18 h) came to 8 µg/mL (≈ 6.94 µM). Besides, the “MIC P. aeruginosa ATTC 27853” value in the data set with P. aeruginosa ATTC 27853 (ATTC 27853, 18 h) worked out at 2 µg/mL (≈ 1.73 µM). In addition, the “MIC K. pneumoniae ATCC 13833” value against K. pneumoniae ATCC 13833 (ATCC 13833, 18 h) is greater than 32 µg/mL. Also, the CC50 at 24 h in the data set “in vitro” is 93 µM.

Take `CCCCCCC[C@@H](O)CC(=O)N[C@H](C(=O)NCC(=O)N[C@H]1CCNC(=O)[C@H]([C@@H](C)O)NC(=O)[C@H](CCN)NC(=O)[C@H](CCN)NC(=O)[C@H](CC(C)C)NC(=O)[C@@H](Cc2ccccc2)NC(=O)[C@H](CCN)NC1=O)[C@@H](C)O` [Compound 52] ({Decanoyl(3R-OH)}-TG[Dab][Dab][dF]L[Dab][Dab]T; lactam 3-C): the “MIC A. baumannii ATCC 19606” value in the data set on A. baumannii ATCC 19606 (ATCC 19606, 18 h) came out at 32 µg/mL (≈ 29.3 µM). Further, the “MIC E. coli ATCC 25922” value in the data set on E. coli ATCC 25922 (ATCC 25922, 18 h) came out at 1 µg/mL (≈ 0.917 µM). For the same molecule, in data set [1] (ATCC 700603, 18 h), the “MIC K. pneumoniae ATCC 700603” value is 4 µg/mL (≈ 3.67 µM). The “MIC S. aureus ATCC 25923” value against S. aureus ATCC 25923 (ATCC 25923, 18 h) is greater than 32 µg/mL. The “MIC K. pneumoniae BAA 2146” value in the data set on K. pneumoniae BAA 2146 (BAA 2146, 18 h) was determined as 4 µg/mL (≈ 3.67 µM). Moreover, the “MIC P. aeruginosa ATTC 27853” value with P. aeruginosa ATTC 27853 (ATTC 27853, 18 h) stood at 4 µg/mL (≈ 3.67 µM). Moreover, the “MIC K. pneumoniae ATCC 13833” value against K. pneumoniae ATCC 13833 (ATCC 13833, 18 h) is greater than 32 µg/mL. Moreover, the CC50 at 24 h in the data set “in vitro” is greater than 300 µM.

For the molecule `CC(C)C[C@@H]1NC(=O)[C@@H](Cc2ccccc2)NC(=O)[C@H](CCN)NC(=O)[C@@H](NC(=O)[C@H](CCN)NC(=O)[C@@H](NC(=O)Nc2ccccc2Cl)[C@@H](C)O)CCNC(=O)[C@H]([C@@H](C)O)NC(=O)[C@H](CCN)NC(=O)[C@H](CCN)NC1=O` [Compound 15] ({NH(2-ClPh)-CO}-T[Dab][Dab][Dab][dF]L[Dab][Dab]T; lactam 3-C), the “MIC A. baumannii ATCC 19606” value with A. baumannii ATCC 19606 (broth microdilution, 18 h) is greater than 32 µg/mL. In addition, the “MIC E. coli ATCC 25922” value against E. coli ATCC 25922 (broth microdilution, 18 h, 37 °C) was determined as 32 µg/mL (≈ 28.7 µM). For the same molecule, the “MIC K. pneumoniae ATCC 700603” value in data set [1] (ESBL strain, broth microdilution, 18 h) was determined as 32 µg/mL (≈ 28.7 µM). In the data set on S. aureus ATCC 25923 (Gram-positive strain, broth microdilution, 18 h), the “MIC S. aureus ATCC 25923” value was greater than 32 µg/mL. Further, the “MIC K. pneumoniae BAA 2146” value in the data set on K. pneumoniae BAA 2146 (NDM-1 positive strain, broth microdilution, 18 h) was 32 µg/mL (≈ 28.7 µM). Besides, in the data set on P. aeruginosa ATTC 27853 (broth microdilution, 18 h), the “MIC P. aeruginosa ATTC 27853” value is 1 µg/mL (≈ 0.895 µM). In the data set with K. pneumoniae ATCC 13833 (broth microdilution, 18 h), the “MIC K. pneumoniae ATCC 13833” value was greater than 32 µg/mL. Besides, the CC50 at 24 h in the data set “in vitro” was 206 µM.
